# Test results published in article PMC8234734, “Pharmacokinetics and Molecular Modeling Indicate nAChRα4-Derived Peptide HAEE Goes through the Blood–Brain Barrier” (Biomolecules, 2021).
# Assays:
# [1] = In vitro stability assay of HAEE in human plasma; assay type: in vitro ADME; details: 1 mM in PBS, 20 µL diluted in 80 µL fresh human plasma, 37 °C, 24 h, MeOH precipitation, RP-HPLC UV 205 nm; data not shown
# Procedure: An in vitro assay of the unlabeled peptide stability was performed as described in [19]. Briefly, HAEE was prepared as a 1 mM solution in phosphate-buffered saline and 20 µL of the peptide solution was diluted in 80 µL of human plasma (freshly taken). The solution was incubated at 37 °C for different times, and the reaction was stopped by adding the Roche cOmplete Protease Inhibitor Cocktail (Roche Molecular Biochemicals, Mannheim, Germany). The bulk of the plasma proteins (but none of the peptide) was precipitated in cold methanol (1:4 (v/v) mixture/MeOH) for 1 h at […]. The precipitated proteins were pelleted by centrifugation at 10,000× g for 10 min at 4 °C. The supernatant containing the peptide was concentrated five times under vacuum and separated by RP-HPLC. The area of the peak (UV absorbance at 205 nm) corresponding to the intact peptide was measured and compared with an equivalent sample incubated in phosphate-buffered saline.
# [2] = Pharmacokinetics of HAEE in rabbit blood after single i.v. bolus; assay type: in vivo
# Procedure: In experiments on rabbits (Table 1, experimental group 1), peptide administration and blood sampling were performed through the large ear veins. To restrict movement, the rabbit was placed in a restrainer with a head hole. Into the right ear, through the large ear vein, 4000 IU of heparin (FSUE “Moscow Endocrine Plant”, Moscow, Russia) in 0.8 mL of saline solution was injected using an insulin syringe, and after 5 min a Flexicath G22 intravenous catheter (Medica LLC, Ivanovo, Russia) was installed into the large ear vein of the left ear for subsequent blood sampling.
# A 0.5 mL of the mixture of HAEE and [^3H]HAEE (2000 µCi, at a dose of 120 µg/kg) was injected with an insulin syringe into the right ear vein for 10–15 s, and after 2, 4, 6, 10, 20, 30, 60, 90 and 120 min, approximately 0.5 mL of venous blood was collected through the catheter and placed into pre-weighed plastic tubes. Immediately after collection, blood tubes were frozen in liquid nitrogen and weighed.
# (§1) Frozen and weighed tissue samples in plastic tubes were freeze-dried for 48 h. The freeze-dried tissue samples were heated at 65 °C for 30 min, after which they were homogenized, and the peptide fraction was extracted with 90% aqueous acetonitrile containing 1% TFA [13]. To facilitate HPLC analysis of radioactively labeled HAEE and normalize the loss of the peptide during extraction, 10 μg of HAEE was added to the extraction solution for each sample. After centrifugation, the solution containing HAEE and blood components was dried under reduced pressure, stripped with methanol and re-centrifuged. The resulting solution containing a mixture of HAEE and [^3H]HAEE was subjected to evaporation under reduced pressure, re-extraction with 0.1% aqueous TFA solution and subsequent centrifugation. Quantitative analysis of the HAEE peptide was performed using HPLC on a Kromasil C18 column, 4 × 150 mm (Nouryon-Separation Products, Bohus, Sweden) in methanol concentration gradient (12–26% for 13 min), in 0.1% HFBA (heptafluorobutyric acid). The fraction containing the HAEE peptide was collected and its [^3H]HAEE content was determined by liquid scintillation counting. The obtained radioactivity value was normalized to the area of the HAEE peak in the chromatogram (UV absorbance at 220 nm).
# (§2) To calculate the pharmacokinetic parameters, we used the values of HAEE peptide concentrations in blood and tissues averaged over three (rabbit) or six (rats and mice) animals. All quantitative values are given as means ± standard deviation. The calculation of pharmacokinetic parameters was performed by combining the model and non-model approaches using the software Borgia 1.03 (NPP Nauka Plus, Rovno, Ukraine) and SigmaPlot 11.0 (Systat Software, San Jose, CA, USA).
# Taking this into account, to determine the pharmacokinetic characteristics of HAEE after systemic administration to rabbits, we analyzed the peptide content in the blood for a long period of time, from 2 to 120 min. The peptide was administered i.v. at a dose of 120 μg/kg.
# [3] = Pharmacokinetics of HAEE in rat blood after single i.v. bolus (dose dependence, chronic administration); details: for Cmax (maximum concentration in the blood) / AUC(0–∞) / T1/2(el) (elimination half-life) / Tmax: rat blood; for Cmax (maximum concentration in the blood): n = 6, sampling 2-30 min; for AUC(0–∞) / T1/2(el) (elimination half-life) / Tmax / ClT (total body clearance) / Kel (elimination rate constant, central compartment) / MRT (residence time) / Vd(c) (volume of distribution in the central compartment at Cmax) / Vd(extrap) / Vd(β) (volume of distribution in the elimination phase): n = 6
# Procedure: In experiments on rats (Table 1, experimental groups 2–5), intravenous (i.v.) administration of the peptide and blood sampling were performed through the jugular veins. For this, in rats anesthetized with a mixture of ketamine (91 mg/kg) and xylazine (9.1 mg/kg), on the ventral side, in the area adjacent to the forelimbs and neck, two longitudinal skin incisions about 2.5 cm long were made on the right and left, and the jugular veins were dissected. An intravenous Flexicath G24 catheter (for heparin and peptide administration) (Medica LLC, Ivanovo, Russia) was installed in the left jugular vein and Flexicath G22 (for blood collection) in the right jugular vein. To prevent blood coagulation, 80 μL of heparin (5000 I.U./mL) was injected through the Flexicath G24 port before the injection of the peptide, and after 5 min a mixture of HAEE and [^3H]HAEE (400 μCi, in doses of 50, 300 or 900 μg/kg) in 200 μL of saline solution was injected for 10–15 s. Following that, after 2, 4, 6, 10, 20 and 30 min, approximately 0.3 mL of venous blood was collected into pre-weighed plastic tubes. After collection, the blood tubes were immediately frozen in liquid nitrogen and weighed. Before the pharmacokinetic study, rats in experimental group 5 were injected daily with i.p. peptide HAEE at a dose of 300 μg/kg for 28 days.
# as §1, §2
# [4] = Distribution of HAEE in mouse tissues after i.p. bolus; assay type: in vivo; details: mice, i.p. bolus 300 μg/kg
# Procedure: In the experiments on mice (Table 1, experimental group 6), a mixture of HAEE and [^3H]HAEE (50 µCi, at a dose of 300 µg/kg) in 200 µL of saline solution was injected intraperitoneally. The animals were decapitated at the end of the period specified by the protocol; blood and studied tissues were collected in weighed plastic tubes, frozen with liquid nitrogen and weighed. When calculating the volumetric concentrations of the total amount of the HAEE peptide (labeled, unlabeled or their mixture) in the blood, the density of the blood was taken equal to 1.056 g/mL [12].
# All quantitative values are given as means ± standard deviation.
# Within the study, bioavailability of HAEE for several organs and tissues was analyzed with i.p. bolus administration to mice at a dose of 300 μg/kg. The quantity of HAEE in the blood, brain, kidneys, liver, heart and omentum was determined at 2, 4, 6, 10, 15 and 20 min after peptide administration. For all tissues, similar changes in the concentrations of HAEE over time were observed (Figure 3A–C). These were characterized by a bimodal relationship with peaks at 4 and 10–15 min.
# Tissue bioavailability of HAEE for the brain was about 3%, which is typical for most pharmacological substances. […] This may indicate accumulation of HAEE in the brain parenchyma due to its active transfer through the BBB and further binding and retention at the affinity sites of neuronal protein targets.
# [5] = test system: B6C3-Tg (APPswe, PSEN1-dE9) 85Dbo/j mice; details: intravenous injections of HAEE; control animals 14.2 ± 3.1; cited from earlier work
# Source text: (§3) The tetrapeptide HAEE had been proposed as one of the candidate molecules for inhibiting cerebral amyloidogenesis in AD [7]. This peptide is a synthetic analogue of the 35-His-Ala-Glu-Glu-38 (35-HAEE-38) fragment of the extracellular N-terminal domain of subunit α4 of the α4β2 nAChR. This fragment (conservative for humans, mice and chicken) forms the interface for the interaction of α4β2 nAChR with Aβ [5]. It has been previously shown by molecular modeling methods that this interaction is stabilized by ion bridges between the complementary charged side groups of the H/E and E/H amino acid ...
# α4β2 nAChR = details: model oocytes, exogenous HAEE; cited from earlier work
# Source text: as §3
# rats = test: Observation of toxic effects after repeated administration to rats; details: administered repeatedly (daily for 28 days, 300 μg/kg)
# [6] = rabbit blood, single i.v. bolus 120 μg/kg, n = 3
# [7] = rabbit, single i.v. bolus 120 μg/kg, n = 3
# [8] = single i.v. bolus 300 μg/kg after a 28 day course of unlabeled HAEE 300 μg/kg/day
# [9] = rat, i.v. bolus, range over doses of 50, 300 and 900 µg/kg
# [10] = rat, single i.v. bolus 50 μg/kg
# [11] = rat, single i.v. bolus 300 μg/kg after a 28 day course of unlabeled HAEE 300 μg/kg/day
# [12] = rat, single i.v. bolus 300 μg/kg
# [13] = rat, single i.v. bolus 900 μg/kg
# [14] = blood, brain, kidneys, liver, heart, omentum
substance,measurement,setting,value
Acetyl-His-Ala-Glu-Glu-Amide [HAEE],Stability in human plasma (intact peptide peak area vs sample in PBS),[1],no significant degradation
same,Cmax (maximum concentration in the blood),"[2]; rabbit blood, single i.v. bolus 120 μg/kg HAEE + [3H]HAEE, n = 3, sampling 2-120 min, HPLC + liquid scintillation",255 ng/mL
same,T1/2(el) (elimination half-life),[2]; [6],20 min
same,Tmax,[2]; [6],4 min
same,AUC(0–∞),"[2]; rabbit blood, single i.v. bolus 120 μg/kg, n = 3, 0-4 min by trapezoidal method",4421 (ng/mL) × min
same,ClT (total body clearance),[2]; [7],100 mL/min
same,"Kel (elimination rate constant, central compartment)",[2]; [7],0.035 min⁻¹
same,MRT (residence time),[2]; [7],29 min
same,Vd(c) (volume of distribution in the central compartment at Cmax),[2]; [7],862 mL
same,Vd(extrap),[2]; [7],3194 mL
same,Vd(β) (volume of distribution in the elimination phase),[2]; [7],2860 mL
same,Cmax (maximum concentration in the blood),"[3]; single i.v. bolus 50 μg/kg HAEE + [3H]HAEE, HPLC + liquid scintillation",73.9 ng/mL
same,AUC(0–∞),[3]; single i.v. bolus 50 μg/kg,1383 (ng/mL) × min
same,T1/2(el) (elimination half-life),[3]; single i.v. bolus 50 μg/kg,23 min
same,Tmax,[3]; single i.v. bolus 50 μg/kg,4 min
same,Cmax (maximum concentration in the blood),"[3]; single i.v. bolus 300 μg/kg HAEE + [3H]HAEE, HPLC + liquid scintillation",439 ng/mL
same,AUC(0–∞),[3]; [8],"12,137 (ng/mL) × min"
same,T1/2(el) (elimination half-life),[3]; [8],29 min
same,Tmax,[3]; [8],4 min
same,Cmax (maximum concentration in the blood),[3]; [8],444 ng/mL
same,AUC(0–∞),[3]; single i.v. bolus 300 μg/kg,"11,340 (ng/mL) × min"
same,T1/2(el) (elimination half-life),[3]; single i.v. bolus 300 μg/kg,22 min
same,Tmax,[3]; single i.v. bolus 300 μg/kg,4 min
same,Cmax (maximum concentration in the blood),"[3]; single i.v. bolus 900 μg/kg HAEE + [3H]HAEE, HPLC + liquid scintillation",1322 ng/mL
same,AUC(0–∞),[3]; single i.v. bolus 900 μg/kg,"47,133 (ng/mL) × min"
same,T1/2(el) (elimination half-life),[3]; single i.v. bolus 900 μg/kg,25 min
same,Tmax,[3]; single i.v. bolus 900 μg/kg,4 min
same,ClT,[3]; [9],6.7 to 13 mL/min
same,MRT,[3]; [9],32 to 36 min
same,T1/2(el),[3]; [9],22 to 25 min
same,ClT (total body clearance),[3]; [10],13.0 mL/min
same,"Kel (elimination rate constant, central compartment)",[3]; [10],0.031 min⁻¹
same,MRT (residence time),[3]; [10],33 min
same,Vd(c) (volume of distribution in the central compartment at Cmax),[3]; [10],107 mL
same,Vd(extrap),[3]; [10],504 mL
same,Vd(β) (volume of distribution in the elimination phase),[3]; [10],425 mL
same,ClT (total body clearance),[3]; [11],8.7 mL/min
same,"Kel (elimination rate constant, central compartment)",[3]; [11],0.024 min⁻¹
same,MRT (residence time),[3]; [11],42 min
same,Vd(c) (volume of distribution in the central compartment at Cmax),[3]; [11],111 mL
same,Vd(extrap),[3]; [11],382 mL
same,Vd(β) (volume of distribution in the elimination phase),[3]; [11],362 mL
same,ClT (total body clearance),[3]; [12],9.3 mL/min
same,"Kel (elimination rate constant, central compartment)",[3]; [12],0.031 min⁻¹
same,MRT (residence time),[3]; [12],32 min
same,Vd(c) (volume of distribution in the central compartment at Cmax),[3]; [12],122 mL
same,Vd(extrap),[3]; [12],296 mL
same,Vd(β) (volume of distribution in the elimination phase),[3]; [12],299 mL
same,ClT (total body clearance),[3]; [13],6.7 mL/min
same,"Kel (elimination rate constant, central compartment)",[3]; [13],0.028 min⁻¹
same,MRT (residence time),[3]; [13],36 min
same,Vd(c) (volume of distribution in the central compartment at Cmax),[3]; [13],108 mL
same,Vd(extrap),[3]; [13],291 mL
same,Vd(β) (volume of distribution in the elimination phase),[3]; [13],237 mL
same,Effect of chronic administration on accumulation and pharmacokinetics,"[3]; rats, 28 days daily 300 μg/kg then i.v. bolus 300 μg/kg, n = 6 vs intact rats n = 6",does not cause its accumulation in rats and does not affect the nature of its pharmacokinetics
same,"AUC(0–20), blood","[4]; blood, 0–20 min, n = 6 per time point, [3H]HAEE",2110 (ng/g) × min
same,"fT × 100%, brain",[4]; brain,about 3%
same,"AUC(0–20), brain","[4]; brain, 0–20 min, n = 6 per time point",70 (ng/g) × min
same,"AUC(0–20), heart","[4]; heart, 0–20 min, n = 6 per time point",845 (ng/g) × min
same,"AUC(0–20), kidney","[4]; kidney, 0–20 min, n = 6 per time point",3437 (ng/g) × min
same,"AUC(0–20), liver","[4]; liver, 0–20 min, n = 6 per time point",777 (ng/g) × min
same,"AUC(0–20), omentum","[4]; omentum, 0–20 min, n = 6 per time point",395 (ng/g) × min
same,Time of first peak of HAEE concentration in tissues (bimodal relationship),[4]; [14],4 min
same,Time of second peak of HAEE concentration in tissues (bimodal relationship),[4]; [14],10 to 15 min
same,Average number of amyloid plaques in a brain section,[5],5.8 ± 2.1
same,Effect on amyloid aggregates formed upon contact with α4β2 nAChR,α4β2 nAChR,are destroyed
same,Visible toxic effects and abnormalities in animal behavior,rats,did not cause visible toxic effects and abnormalities in animal behavior
